Laboratory results published in US20230157952A1, “METHOD FOR IMPROVING THE STABILITY OF A PHARMACEUTICAL COMPOSITION COMPRISING A HIGH PENETRATION DRUG, AND THE PHARMACEUTICAL COMPOSITION OBTAINED THEREFROM” (Techfields Inc., priority 2020, published 2023).
Non-standard residues stand in square brackets, D forms with d. *: point of attachment. Arg(NO2) = N=C(NCCC[C@H](N)C(=O)O)N[N+](=O)[O-]; OiPr = CC(C)O*

Key:
Format in all cases: physicochemical
[1] = Effect of pH value on the stability of the solution (purity); conditions: 25° C.
[2] = Stability of the pure HPDs (dry solid) at 25° C./RH 60%; conditions: for Purity: pure HPD, 25° C./RH 60%
[3] = Effect of temperature (and pH) on the stability of the solution (purity); conditions: for Stability of the solution at a temperature higher than 40° C. and a pH lower than 3 or greater than 6: 7% solution in water
[4] = day 28, pH 1.0, 7% solution in water
[5] = day 28, pH 2.0, 7% solution in water
[6] = day 28, pH 3.0, 7% solution in water
[7] = day 28, pH 3.7, 7% solution in water
[8] = day 28, pH 5.0, 7% solution in water
[9] = day 28, pH 6.0, 7% solution in water
[10] = day 28, pH 7.0, 7% solution in water
[11] = day 28, pH 8.0, 7% solution in water
[12] = day 28, pH 1.0, 7% in 25% ethanol
[13] = day 28, pH 2.0, 7% in 25% ethanol
[14] = day 28, pH 3.0, 7% in 25% ethanol
[15] = day 28, pH 3.7, 7% in 25% ethanol
[16] = day 28, pH 4.0, 7% in 25% ethanol
[17] = day 28, pH 4.3, 7% in 25% ethanol
[18] = day 28, pH 4.6, 7% in 25% ethanol
[19] = day 28, pH 5.0, 7% in 25% ethanol
[20] = day 28, pH 6.0, 7% in 25% ethanol
[21] = day 28, pH 7.0, 7% in 25% ethanol
[22] = day 28, pH 8.0, 7% in 25% ethanol
[23] = 5% solution with 1 equivalent sodium acetate in 25% ethanol, pH 4.49-4.51
[24] = pure HPD at 25° C./RH 60%, in % (unit assumed)

Br.CCN(CC)CCOC(=O)C(C)c1ccc2cc(OC)ccc2c1 (racemic) [C-2, 2-(diethylamino)ethyl (R,S)-2-(6-methoxy-2-naphthyl) propionate•HBr salt]
Purity(%) from day 0-28 [1, 4]: 69.7 ± 0.3%
Purity(%) from day 0-28 [1, 5]: 80.1 ± 0.3%
Purity(%) from day 0-28 [1, 6]: 90.7 ± 0.3%
Purity(%) from day 0-28 [1, 7]: 97.1 ± 0.3%
Purity(%) from day 0-28 [1, 8]: 96.5 ± 0.3%
Purity(%) from day 0-28 [1, 9]: 89.0 ± 0.4%
Purity(%) from day 0-28 [1, 10]: 65.5 ± 0.3%
Purity(%) from day 0-28 [1, 11]: 45.5 ± 0.5%
Purity ([2]; 3 month, listed as A-1-4): 98.9 ± 0.1
Purity ([2]; 6 month, listed as A-1-4): 98.6 ± 0.4
Purity ([2]; 9 month): 98.1 ± 0.1
Purity ([2]; 18 month): 97.9 ± 0.3
Purity ([2]; 24 month): 97.7 ± 0.4
Purity ([2]; 24 month, listed as A-1-4): 98.0 ± 0.4
Purity ([2]; Day 0, listed as A-1-4): 98.6 ± 0.3

CCN(CC)CCOC(=O)[C@H](C)c1ccc2cc(OC)ccc2c1.O=C(O)CC(O)(CC(=O)O)C(=O)O (racemic) [C-3, 2-(diethylamino)ethyl (R,S)-2-(6-methoxy-2-naphthyl) propionate•citric acid salt]
Purity(%) from day 0-28 [1, 4]: 68.2 ± 0.4%
Purity(%) from day 0-28 [1, 5]: 80.1 ± 0.3%
Purity(%) from day 0-28 [1, 6]: 90.3 ± 0.3%
Purity(%) from day 0-28 [1, 7]: 96.8 ± 0.2%
Purity(%) from day 0-28 ([1]; day 28, pH 4.0, 7% solution in water): 97.1 ± 0.2%
Purity(%) from day 0-28 ([1]; day 28, pH 4.3, 7% solution in water): 97.1 ± 0.3%
Purity(%) from day 0-28 ([1]; day 28, pH 4.6, 7% solution in water): 97.0 ± 0.3%
Purity(%) from day 0-28 [1, 8]: 96.0 ± 0.3%
Purity(%) from day 0-28 [1, 9]: 88.4 ± 0.3%
Purity(%) from day 0-28 [1, 10]: 55.8 ± 0.4%
Purity(%) from day 0-28 [1, 11]: 35.8 ± 0.5%
Purity ([2]; 12 month): 98.1 ± 0.3
Purity ([2]; 18 month): 97.9 ± 0.4
Purity ([2]; 24 month): 97.8 ± 0.3

CC(C)Cc1ccc([C@@H](C)C(=O)OCCN(C)C)cc1.Cl (racemic) [C-5, 2-(dimethylamino)ethyl (R,S)-2-(p-isobutylphenyl)propionate•HCl salt]
Purity(%) from day 0-28 [1, 12]: 65.3 ± 0.3%
Purity(%) from day 0-28 [1, 13]: 77.4 ± 0.3%
Purity(%) from day 0-28 [1, 14]: 88.4 ± 0.2%
Purity(%) from day 0-28 [1, 15]: 95.7 ± 0.3%
Purity(%) from day 0-28 [1, 16]: 96.6 ± 0.4%
Purity(%) from day 0-28 [1, 17]: 96.8 ± 0.3%
Purity(%) from day 0-28 [1, 18]: 96.8 ± 0.2%
Purity(%) from day 0-28 [1, 19]: 93.1 ± 0.4%
Purity(%) from day 0-28 [1, 20]: 85.3 ± 0.2%
Purity(%) from day 0-28 [1, 21]: 47.1 ± 0.3%
Purity(%) from day 0-28 [1, 22]: 34.9 ± 0.5%
Purity ([2]; 3 month): 98.1 ± 0.2
Purity ([2]; 6 month): 98.1 ± 0.3
Purity ([2]; 12 month): 98.0 ± 0.4
Purity ([2]; 18 month): 97.9 ± 0.1
Purity ([2]; 24 month): 97.7 ± 0.4

CCCCN(CCCC)CCOC(=O)C(C)c1ccc(CC(C)C)cc1.Cl (racemic) [C-6, 2-(dibutylamino)ethyl (R,S)-2-(p-isobutylphenyl)propionate•HCl salt]
Purity(%) from day 0-28 [1, 12]: 68.4 ± 0.3%
Purity(%) from day 0-28 [1, 13]: 79.2 ± 0.4%
Purity(%) from day 0-28 [1, 14]: 91.2 ± 0.3%
Purity(%) from day 0-28 [1, 15]: 96.9 ± 0.2%
Purity(%) from day 0-28 [1, 16]: 97.3 ± 0.2%
Purity(%) from day 0-28 [1, 17]: 97.3 ± 0.3%
Purity(%) from day 0-28 [1, 18]: 97.1 ± 0.3%
Purity(%) from day 0-28 [1, 19]: 94.5 ± 0.3%
Purity(%) from day 0-28 [1, 20]: 89.2 ± 0.4%
Purity(%) from day 0-28 [1, 21]: 51.5 ± 0.3%
Purity(%) from day 0-28 [1, 22]: 35.1 ± 0.3%
Purity ([2]; 24 month): 98.1 ± 0.2

CCN(CC)CCOC(=O)c1ccccc1OC(C)=O.O=C(O)c1ccccc1 [A-2, 2-(diethylamino)ethyl acetylsalicylate•benzoic acid salt]
Purity(%) from day 0-14 ([1]; day 14, pH 1.0, 7% in water): 60.5 ± 0.3%
Purity(%) from day 0-14 ([1]; day 14, pH 2.0, 7% in water): 79.7 ± 0.4%
Purity(%) from day 0-14 ([1]; day 14, pH 3.0, 7% in water): 91.0 ± 0.2%
Purity(%) from day 0-14 ([1]; day 14, pH 3.7, 7% in water): 94.1 ± 0.2%
Purity(%) from day 0-14 ([1]; day 14, pH 4.0, 7% in water): 95.0 ± 0.3%
Purity(%) from day 0-14 ([1]; day 14, pH 4.3, 7% in water): 95.0 ± 0.4%
Purity(%) from day 0-14 ([1]; day 14, pH 4.6, 7% in water): 94.4 ± 0.3%
Purity(%) from day 0-14 ([1]; day 14, pH 5.0, 7% in water): 87.3 ± 0.2%
Purity(%) from day 0-14 ([1]; day 14, pH 6.0, 7% in water): 78.3 ± 0.3%
Purity(%) from day 0-14 ([1]; day 14, pH 7.0, 7% in water): 56.0 ± 0.4%
Purity(%) from day 0-14 ([1]; day 14, pH 8.0, 7% in water): 17.7 ± 0.4%
Purity ([2]; 12 month): 97.9 ± 0.1
Purity ([2]; 18 month): 97.6 ± 0.2
Purity ([2]; 24 month): 97.1 ± 0.2

CC(O)C(=O)O.CCN(CC)CCOC(=O)c1ccccc1OC(C)=O [A-3, 2-(diethylamino)ethyl acetylsalicylate•lactic acid salt]
Purity(%) from day 0-14 ([1]; day 14, pH 1.0, 7% in water): 57.9 ± 0.4%
Purity(%) from day 0-14 ([1]; day 14, pH 2.0, 7% in water): 77.0 ± 0.4%
Purity(%) from day 0-14 ([1]; day 14, pH 3.0, 7% in water): 88.7 ± 0.2%
Purity(%) from day 0-14 ([1]; day 14, pH 3.7, 7% in water): 93.1 ± 0.3%
Purity(%) from day 0-14 ([1]; day 14, pH 4.0, 7% in water): 94.1 ± 0.4%
Purity(%) from day 0-14 ([1]; day 14, pH 4.3, 7% in water): 94.4 ± 0.2%
Purity(%) from day 0-14 ([1]; day 14, pH 4.6, 7% in water): 94.1 ± 0.2%
Purity(%) from day 0-14 ([1]; day 14, pH 5.0, 7% in water): 85.6 ± 0.4%
Purity(%) from day 0-14 ([1]; day 14, pH 6.0, 7% in water): 78.3 ± 0.3%
Purity(%) from day 0-14 ([1]; day 14, pH 7.0, 7% in water): 55.1 ± 0.3%
Purity(%) from day 0-14 ([1]; day 14, pH 8.0, 7% in water): 15.0 ± 0.4%
Purity ([2]; 12 month): 97.9 ± 0.2
Purity ([2]; 18 month): 97.3 ± 0.1
Purity ([2]; 24 month): 96.8 ± 0.2

CCN(CC)CCOC(=O)C(C)c1ccc(-c2ccccc2)c(F)c1.Cl (stereo not shown) [B-1-1, 2-(diethylamino)ethyl 2-(2-fluoro-4-biphenyl)propionate•HCl salt]
Stability of the solution at a temperature higher than 40° C. and a pH lower than 3 or greater than 6 [3]: not stable
Purity ([2]; 6 month): 98.1 ± 0.1
Purity ([2]; 18 month): 98.1 ± 0.1
Purity ([2]; 24 month): 98.0 ± 0.1

Br.CCN(CC)CCOC(=O)C(C)c1ccc(-c2ccccc2)c(F)c1 (stereo not shown) [B-1-4, 2-(diethylamino)ethyl 2-(2-fluoro-4-biphenyl)propionate•HBr salt]
Purity ([2]; 18 month): 98.1 ± 0.1
Purity ([2]; 24 month): 97.9 ± 0.1
Purity ([2]; Day 0): 98.6 ± 0.2

CCN(CC)CCOC(=O)[C@@H](C)c1ccc(CC(C)C)cc1.Cl [C-1-2, 2-(diethylamino)ethyl (S)-2-(p-isobutylphenyl)propionate•HCl salt]
Purity ([2]; 24 month): 98.0 ± 0.5

CCN(CC)CCOC(=O)[C@H](C)c1ccc(CC(C)C)cc1.Cl [C-1-3, 2-(diethylamino)ethyl (R)-2-(p-isobutylphenyl)propionate•HCl salt]
Stability of the solution at a temperature higher than 40° C. and a pH lower than 3 or greater than 6 [3]: not stable
Purity ([2]; 6 month): 98.1 ± 0.3
Purity ([2]; 9 month): 98.0 ± 0.1
Purity ([2]; 12 month): 98.0 ± 0.3
Purity ([2]; 18 month): 97.9 ± 0.3
Purity ([2]; 24 month): 97.8 ± 0.2

H-Ala-Pro-Gly-Pro-Arg(NO2)—OCH(CH3)2•HCl (H-APGP[Arg(NO2)]-OiPr; also: HCl salt) [T-2]
Purity (%) at day 30 (60° C.) [3, 23]: 32.8 ± 0.2%
Purity (%) at day 90 (60° C.) [3, 23]: 0%
Purity (%) at day 180 (60° C.) [3, 23]: 0%
Purity (%) at day 360 (60° C.) [3, 23]: 0%
Purity(%) at day 0 [3, 23]: 98.9 ± 0.2%
Purity(%) at day 30 (5° C.) [3, 23]: 98.8 ± 0.2%
Purity(%) at day 30 (25° C.) [3, 23]: 97.8 ± 0.3%
Purity(%) at day 30 (40° C.) [3, 23]: 71.3 ± 0.2%
Purity(%) at day 90 (5° C.) [3, 23]: 98.5 ± 0.3%
Purity(%) at day 90 (25° C.) [3, 23]: 97.0 ± 0.2%
Purity(%) at day 90 (40° C.) [3, 23]: 33.6 ± 0.2%
Purity(%) at day 180 (5° C.) [3, 23]: 97.8 ± 0.2%
Purity(%) at day 180 (25° C.) [3, 23]: 95.2 ± 0.3%
Purity(%) at day 180 (40° C.) [3, 23]: 13.6 ± 0.2%
Purity(%) at day 360 (5° C.) [3, 23]: 97.4 ± 0.3%
Purity(%) at day 360 (25° C.) [3, 23]: 92.3 ± 0.3%
Purity(%) at day 360 (40° C.) [3, 23]: 0%
Purity at 3 month [2, 24]: 98.9 ± 0.3
Purity at 6 month [2, 24]: 98.6 ± 0.2
Purity at 9 month [2, 24]: 98.6 ± 0.3
Purity at 12 month [2, 24]: 98.5 ± 0.2
Purity at 18 month [2, 24]: 98.5 ± 0.2
Purity at 24 month [2, 24]: 98.4 ± 0.2
Purity at Day 0 [2, 24]: 98.9 ± 0.1
Stability of the pure powder ([2]; room temperature (25° C./RH 60%)): very stable
